Usually pEC50 stands for the EC50 on a negative log10 scale, so that one unit is a factor of ten. Usually inhibition stands for the change of the read-out against control, counted positive when it falls. Usually IC50 stands for the concentration that inhibits the measured activity by half.

One assay relates to pancreatic cancer cells. The settings on record: background, reported; cited from earlier work.
Assay [1] deals with BxPC3 (pancreas adenocarcinoma) cell line. Nature of the assay: Cell viability assay (Cell Titer Glo), growth inhibition. The assay is classed as cell-based, human. How it is done:
(§1) Growth inhibition of the compound comprises in the invention was tested in vitro using human cancer cell cultures
(§2) HepG2 (liver human hepatocellular carcinoma), BxPC3 and Capan-2 (adenocarcinomas), A549 (lung carcinoma), HCT-116 (colorectal carcinoma) and MCF-7 (breast tumor) cell lines were obtained from ATCC. The HepG2, BxPC3, Capan-2 and MCF-7 cells were placed into 75 ccm^3 tissue culture flasks and grown at 37° C. under a humidified 5% CO2 atmosphere in EMEM and RPMI-1640 medium respectively with 10% fetal bovine serum and 2% penicillin-streptomycin. Trypsin (0.05%) was used to detach cells from the bottom of flask.
(§3) Cells were plated in 96 well plates at a density of 10^4 cells/well and grown for 24 h. Cells were treated with different concentrations of the test compounds or vehicle alone (DMSO) and grown at 37° C. under a humidified 5% CO2 atmosphere. Their corresponding medium was used to dilute the 10 mM stocks of each compound to obtain 1 mM stock solutions and subsequently, the treatment concentrations. After 96 hours of incubation, the plates were equilibrated at room temperature for 30 minutes, […] of Cell Titer Glo® Luminometric Cell Viability Assay reagent (Promega) was added into each well, put on an orbital shaker for 2 minutes and incubated for 10 minutes at room temperature. The plate was transferred to a luminometer (Glomax Promega) and the luminescent signal was recorded. Each treatment at different concentration and the control group were triplicates or duplicates.
(§4) This is a homogeneous method to determine the number of viable cells in culture based on quantification of the ATP present which signals the presence of metabolically active cells.
(In ATP-based viability assays light output follows the ATP content of the culture.)

In assay [2] the test system is Capan-2 (pancreas adenocarcinoma) cell line. The description is as above. In kind it is cell-based, human. Here is the method:
as §1, §2, §3, §4

For assay [3], the system named is HCT-116 (colorectal carcinoma) cell line. The assay is described as above. In kind it is cell-based. The settings on record: Homo sapiens, 96 hours of incubation, read-out: Growth Inhibition (%) At 20 μM, HCT-116 (Colon). How it is done:
as §1, §2, §3, §4

Assay [4] has as its system MCF-7 (breast tumor) cell line. The assay is described as above. The assay is classed as cell-based. The note with it: Homo sapiens, MCF7, 96 hours of incubation. Here is the method:
as §1, §2, §3, §4

The subject of assay [5] is HepG2 (liver human hepatocellular carcinoma) cell line. The description is as above. In kind it is cell-based. Here is the method: as §1, §2, §3, §4
In assay [6] the test system is A549 (lung carcinoma) cell line. Described as above. The note with it: Homo sapiens, 96 hours of incubation. In kind it is cell-based. Here is the method:
as §1, §2, §3, §4

The subject of assay [7] is KRAS mutated human pancreatic and liver cancer cell lines (HepG-2, Panc-1, Capan-2). Briefly: Activity in KRAS mutated, Gemcitabine-resistant cancer cell lines. The assay is classed as cell-based. Here is the method: Liver and pancreatic cancer patients have an extremely poor survival rate (Table 1).
as §3

For another assay, the system named is Panc-1 (pancreas) cells. Briefly: Growth inhibition in cancer cell lines (FIG. 5). In kind it is cell-based, human. The note with it: KRAS mutation.
Source text: Molecules such as LCB-2151 and LCB-2132 (Group B) and LCB-2179 (Group C) indeed show antiproliferative activities against cancer cell lines with KRAS mutations. FIG. 5 presents the activity of LCB-2151, LCB-2179, LCB-2132 and Gemcitabine in different cancer cell lines. Most liver and pancreas cell lines have the KRAS protein (oncogene identified in Kiersten rat sarcoma virus), which alters its signal transduction pathway, are resistant to Gemcitabine. […] Both HepG-2 (liver) and Panc-1 (pancreas) have the KRAS mutation and are resistant to Gemcitabine.
as §3

[8] abbreviates: Homo sapiens, BXPC-3, 96 h, read-out: Growth Inhibition (%) At 20 μM, BxPC3 (Pancreas).
The mark [9] stands for this setting: Homo sapiens, Capan-2, 96 h, read-out: Growth Inhibition (%) At 20 μM, Capan-2 (Pancreas).
[10] abbreviates: Homo sapiens, HepG2, 96 h, read-out: Growth Inhibition (%) At 20 μM, HepG2 (Liver).
Where [11] appears, read: Homo sapiens, BXPC-3; read-out: IC50 (μM), BxPC3 (Pancreas), antiproliferative activity.
The mark [12] stands for this setting: Homo sapiens, Capan-2; read-out: IC50 (μM), Capan-2 (Pancreas), antiproliferative activity.
The mark [13] stands for this setting: Homo sapiens, HepG2; read-out: IC50 (μM), HepG2 (Liver), antiproliferative activity.
[14] abbreviates: BXPC3 (pancreas), KRAS wild type.

The structures appear in SMILES notation. pEC50: −log10 of the molar value. Read-outs that look alike come from different tables or passages of the source.

Turning to `CCCCCCCC(=O)Nc1ccn([C@@H]2O[C@H](CO)[C@@H](O)C2(F)F)c(=O)n1`, the pEC50 with pancreatic cancer cells was 4.00.

As for `CC(C)OC(=O)[C@H](C)NP(=O)(OC[C@H]1O[C@@H](n2cnc3c(NCc4ccccc4)ncnc32)C(F)(F)C1(C)COP(=O)(N[C@@H](C)C(=O)OC(C)C)Oc1ccccc1)Oc1ccccc1` (stereo partly shown) [LCB2095], the inhibition at 20 µM is 67% in assay [1] (setting [8]); 46% in assay [2] (setting [9]); 31% in assay [3]; 49% in [4]; 0% in [5] (setting [10]); 3% in assay [6].

For `CC(C)(CCC(CCSCc1ccc(C(F)(F)F)cc1)SCc1ccc(C(F)(F)F)cc1)CC(=O)Nc1ccn([C@H]2CC(O)[C@@H](CO)O2)c(=O)n1` (stereo partly shown) [LCB-2132], in [7], the “EC90 activity against KRAS mutated cancer cell lines resistant to Gemcitabine” value (“EC90 activity” below) was “show EC90 activity”.

For the compound `CC(C)OC(=O)[C@H](C)NP(=O)(OC[C@H]1O[C@@H](n2cnc3c(N)nc(Cl)nc32)C(F)(F)C1(C)COP(=O)(N[C@@H](C)C(=O)OC(C)C)Oc1ccccc1)Oc1ccccc1` (stereo partly shown) [LCB2105], the inhibition at 20 µM in assay [1] (setting [8]) came to 47%; in assay [2] (setting [9]), 48%; in assay [3] it was 53%.

For the compound `CC(C)(CCC(CCSCc1ccc(F)cc1)SCc1ccc(F)cc1)CC(=O)Nc1ccn([C@@H]2O[C@H](CO)[C@@](C)(CO)C2(F)F)c(=O)n1` (stereo partly drawn) [LCB-2140, N-(1-((2R,4R,5S)-3,3-difluoro-4,5-bis(hydroxymethyl)-4-methyltetrahydrofuran-2-yl)-2-oxo-1,2-dihydropyrimidin-4-yl)-6,8-bis((4-fluorobenzyl)thio)-3,3-dimethyloctanamide], the IC50 in [1] (setting [11]) amounted to 8 µM; in assay [2] (setting [12]), 12.5 µM; in assay [5] (setting [13]), 8 µM.

With `CC(C)(CC[C@H](CCSCc1ccc(C(F)(F)F)cc1)SCc1ccc(C(F)(F)F)cc1)CC(=O)Nc1ccn([C@@H]2O[C@H](CO)[C@@](C)(CO)C2(F)F)c(=O)n1` [LCB-2151, (R)—N-(1-((2R,4R,5S)-3,3-difluoro-4,5-bis(hydroxymethyl)-4-methyltetrahydrofuran-2-yl)-2-oxo-1,2-dihydropyrimidin-4-yl)-3,3-dimethyl-6,8-bis((4-(trifluoromethyl)benzyl)thio) octanamide], the “growth inhibition (FIG. 5), in words” value with Panc-1 (pancreas) cells was “block completely the growth”; in assay [1] (setting [14]), “block completely the growth”; in assay [2] (Capan-2), “block completely the growth”; in assay [5] (HepG-2 (liver), KRAS mutation), “block completely the growth”. Further, in assay [7], the “EC90 activity” value is listed as “show EC90 activity”. Moreover, the IC50 in assay [1] (setting [11]) turned out to be 5 µM; in [2] (setting [12]), 8 µM; in assay [5] (setting [13]), 8 µM.

As for `CC(C)OC(=O)[C@H](C)NP(=O)(OC[C@H]1O[C@@H](n2cnc3c(N)ncnc32)C(F)(F)C1(C)CO)Oc1ccccc1` (stereo partly shown) [LCB2093], the inhibition at 20 µM in [1] (setting [8]) was 6%; in assay [2] (setting [9]), 22%; in assay [3], 28%; in assay [4], 14%; in assay [5] (setting [10]), 6%; in assay [6], 0%.

Regarding `Nc1ccn([C@@H]2O[C@H](CO)[C@@H](O)C2(F)F)c(=O)n1` [Gemcitabine, reference compound], the “plateau of inhibition (FIG. 5)” value in the assay with Panc-1 (pancreas) cells (second of the two plateaus named) was determined as 30%; in [5] (HepG-2 (liver), KRAS mutation; first of the two plateaus named), 50%. Besides, the “growth inhibition (FIG. 5), in words” value in assay [1] (setting [14]) is “growth is blocked”; in [2] (Capan-2), “no growth inhibition”.

Turning to `CC(C)OC(=O)[C@H](C)NP(=O)(OC[C@H]1O[C@@H](n2cnc3c(NCc4ccccc4)nc(Cl)nc32)[C@H](F)C1(C)COP(=O)(N[C@@H](C)C(=O)OC(C)C)Oc1ccccc1)Oc1ccccc1` (stereo partly shown) [LCB2076], the inhibition at 20 µM in assay [1] (setting [8]) is 25%; in assay [2] (setting [9]), 14%; in assay [3], 10%; in assay [4], 69%; in assay [5] (setting [10]) it was 0%.

In the case of `CC(C)OC(=O)[C@H](C)NP(=O)(OC[C@H]1O[C@@H](n2cnc3c(N)nc(Cl)nc32)[C@H](F)C1(C)COP(=O)(N[C@@H](C)C(=O)OC(C)C)Oc1ccccc1)Oc1ccccc1` (stereo partly shown) [LCB2080], the inhibition at 20 µM in [1] (setting [8]) amounted to 16%; in assay [2] (setting [9]) it was 58%; in [3], 40%; in assay [4], 79%; in assay [5] (setting [10]), 0%; in [6] it was 34%.

Turning to `COc1nc(Cl)nc2c1ncn2[C@@H]1O[C@H](COP(=O)(N[C@@H](C)C(=O)OC(C)C)Oc2ccccc2)C(C)(COP(=O)(N[C@@H](C)C(=O)OC(C)C)Oc2ccccc2)[C@H]1F` (stereo partly shown) [LCB2079], the inhibition at 20 µM was 40% in assay [1] (setting [8]); 50% in [2] (setting [9]); 51% in [3]; 96% in assay [4]; 72% in assay [5] (setting [10]); 70% in assay [6]. The same compound displayed an inhibition at 50 µM in assay [4] (50 μM) greater than 96%.

As for `CC(C)(CCC(CCSCc1ccc(C(F)(F)F)cc1)SCc1ccc(C(F)(F)F)cc1)CC(=O)Nc1ccn([C@@H]2O[C@H](CO)[C@@](C)(CO)C2(F)F)c(=O)n1` (stereo partly drawn) [LCB-2139, N-(1-((2R,4R,5S)-3,3-difluoro-4,5-bis(hydroxymethyl)-4-methyltetrahydrofuran-2-yl)-2-oxo-1,2-dihydropyrimidin-4-yl)-3,3-dimethyl-6,8-bis((4-(trifluoromethyl)benzyl)thio)octanamide], the IC50 in [1] (setting [11]), in [2] (setting [12]) and in assay [5] (setting [13]) was 8 µM in each case.

`CC(C)OC(=O)[C@H](C)NP(=O)(OC[C@H]1O[C@@H](n2ccc(NC(=O)CC(C)(C)CC[C@H](CCSCc3ccc(C(F)(F)F)cc3)SCc3ccc(C(F)(F)F)cc3)nc2=O)[C@](C)(CO)[C@@H]1O)Oc1ccccc1` (stereo partly drawn) [LCB-2179, Isopropyl ((((2R,3S,4R,5R)-5-(4-(3,3-dimethyl-6,8-bis((4-(trifluoromethyl)benzyl)thio)octanamido)-2-oxopyrimidin-1(2H)-yl)-3-hydroxy-4-(hydroxymethyl)-4-methyltetrahydrofuran-2-yl)methoxy)(phenoxy)phosphoryl)-L-alaninate]: the “growth inhibition (FIG. 5), in words” value in the assay on Panc-1 (pancreas) cells is recorded as “block completely the growth”; in [1] (setting [14]), “block completely the growth”; in [2] (Capan-2) it was “block completely the growth”; in [5] (HepG-2 (liver), KRAS mutation) it was “block completely the growth”. Moreover, the “EC90 activity” value in [7] is given as “show EC90 activity”. Further, the IC50 in assay [1] (Homo sapiens, BXPC-3, read-out: IC50 (μM), BxPC3 (Pancreas), antiproliferative activity) amounted to 7 µM; in [2] (Homo sapiens, Capan-2, read-out: IC50 (μM), Capan-2 (Pancreas), antiproliferative activity) it was 15 µM; in assay [5] (Homo sapiens, HepG2, read-out: IC50 (μM), HepG2 (Liver), antiproliferative activity), 15 µM.

`CC(C)OC(=O)[C@H](C)NP(=O)(OC[C@H]1O[C@@H](n2cnc3c(N)ncnc32)C(F)(F)C1(C)COP(=O)(N[C@@H](C)C(=O)OC(C)C)Oc1ccccc1)Oc1ccccc1` (stereo partly shown) [LCB2092]: the inhibition at 20 µM in assay [1] (setting [8]) was found to be 62%; in assay [2] (setting [9]), 48%; in [3] it was 60%; in [4] it was 54%; in assay [5] (setting [10]), 16%; in [6], 25%.

The values above are taken from patent US11453695B2, “Nucleoside analogues and methods of use thereof” (priority 2016, dated 2022).
